In PubChem BioAssay (NCI):
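Compound exposure: 48 hours, 5 concentrations, 96-well plates. The concentration for 50% growth inhibition is given as GI50. TGI is the concentration that stops growth completely.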 Where a SMILES comes first, the peptide text is derived from it. [ ]: non-standard residue; d: D form.

Columns and labels:
Test in all cases: NCI tumour cell line growth inhibition, 48 h
K-562 leukemia = system: K-562 leukemia
IGROV1 ovarian = system: IGROV1 ovarian
HL-60(TB) leukemia = system: HL-60(TB) leukemia
COLO 205 colon = system: COLO 205 colon
SK-MEL-5 melanoma = system: SK-MEL-5 melanoma
HCT-116 colon = system: HCT-116 colon
SF-539 CNS = system: SF-539 CNS
SNB-19 CNS = system: SNB-19 CNS
786-0 renal = system: 786-0 renal

SMILES | TGI (K-562 leukemia) [µM] | TGI (IGROV1 ovarian) [µM] | TGI (HL-60(TB) leukemia) [µM] | TGI (COLO 205 colon) [µM] | TGI (SK-MEL-5 melanoma) [µM] | TGI (HCT-116 colon) [µM] | TGI (SF-539 CNS) [µM] | TGI (SNB-19 CNS) [µM] | TGI (786-0 renal) [µM] | GI50 (K-562 leukemia) [µM] | GI50 (HL-60(TB) leukemia) [µM] | GI50 (HCT-116 colon) [µM] | GI50 (SF-539 CNS) [µM] | GI50 (SNB-19 CNS) [µM]
Cc1ccc(C)n1-c1ccccc1C1C=Cn2c(=O)oc3c(OC(C)C)c(OC(C)C)c(O)c1c32 (configuration not stated) | > 100 | > 100 | > 100 | 30.9 | > 100 | > 100 | > 100 | > 100 | > 100 | – | – | – | – | –
CC(=O)/C=C(/C)[O-].CC(=O)/C=C(/C)[O-].CC(=O)[CH-]C(C)=O.CC(=O)[CH-]C(C)=O.[Zr+4] | > 100 | – | 71.3 | – | – | 16.3 | > 100 | > 100 | – | > 100 | 28.8 | 3.89 | > 100 | > 100
CSc1ccc(N2C(=O)C3c4[nH]c5ccccc5c4C4CCC(C(C)(C)C)CC4C3C2=O)cc1 (configuration not stated) | 34.5 | 32 | 31.1 | 25.2 | 58.5 | 18 | 43.1 | 45.2 | 29.1 | – | – | – | – | –
O=C(CC12C3C4C1C1C2C3C41CC(=O)NO)NO (configuration not stated) | 87.1 | – | 86.2 | > 100 | > 100 | > 100 | > 100 | > 100 | > 100 | – | – | – | – | –
NC1(c2cc3ccccc3s2)CCCCCC1 | 28.1 | 32.6 | 31.5 | 26.5 | 28.8 | 29.5 | 32.8 | 34.8 | 28.8 | – | – | – | – | –
[N-]=[N+]=C(C(=O)CN1CCCC1=O)S(=O)(=O)c1ccccc1 | > 100 | > 100 | > 100 | > 100 | > 100 | > 100 | > 100 | > 100 | > 100 | – | – | – | – | –
COC(=O)/C1=C/C=C\C[C@@]2(C)CC(c3ccoc3)OC(=O)[C@@H]2CC[C@H]1C (some centres not stated) | > 25 | > 25 | > 25 | > 25 | > 25 | > 25 | > 25 | > 25 | > 25 | – | – | – | – | –
O=C1Sc2ccccc2C(=O)N2CCSC12 (configuration not stated) | > 100 | – | > 100 | > 100 | > 100 | > 100 | – | > 100 | – | – | – | – | – | –
COC(=O)/C=C1\C(CO[Si](C)(C)C(C)(C)C)OC(n2cc(C)c(=O)n(C)c2=O)C1O[Si](C)(C)C(C)(C)C (configuration not stated) | > 100 | > 100 | – | > 100 | > 100 | > 100 | – | > 100 | > 100 | – | – | – | – | –
N#CC1=C(O)NC(O)=C(C#N)C1c1c(Cl)cccc1Cl | > 100 | > 100 | > 100 | > 100 | > 100 | > 100 | 41.3 | > 100 | – | – | – | – | – | –
COCC(C#N)NC1CC(OC2CC(O)(C(=O)CO)Cc3c(O)c4c(c(O)c32)C(=O)c2c(OC)cccc2C4=O)OC(C)C1O (configuration not stated) | 1.11 | 0.582 | 0.432 | 0.471 | 0.154 | – | 0.365 | 2.61 | 1.77 | – | – | – | – | –
O=C1CCC2(O)c3ccccc3C2Cc2ccccc21 (configuration not stated) | > 100 | > 100 | > 100 | > 100 | – | > 100 | > 100 | > 100 | > 100 | – | – | – | – | –
O=C1C(Cl)N(c2ccc([N+](=O)[O-])cc2)C1c1c[nH]c2ccccc12 (configuration not stated) | > 100 | > 100 | > 100 | > 100 | > 100 | > 100 | > 100 | > 100 | – | – | – | – | – | –
Clc1ccc(C2SCc3nc4ccccc4n32)cc1 (configuration not stated) | > 100 | 55.9 | 22.6 | 36.8 | 23.3 | – | 76.8 | 77 | – | – | – | – | – | –
CC(C)C[C@H](NC(=O)[C@H](CC(C)C)NC(=O)[C@@H](Cc1c[nH]c2ccccc12)NC(=O)[C@H](Cc1ccccc1)NC(=O)[C@@H](Cc1c[nH]c2ccccc12)NC(=O)[C@H](CCC(N)=O)NC(=O)[C@@H](CCC(N)=O)NC(=O)[C@@H]1CCCN1C(=O)[C@@H](CCCCN)NC(=O)[C@H]1CCCN1C(=O)[C@H](N)CCCN=C(N)N)C(N)=O (H-[dR][dP][dK]P[dQ]Q[dW]F[dW]LL-NH2) | > 100 | > 100 | > 100 | > 100 | > 100 | > 100 | > 100 | > 100 | – | – | – | – | – | –
Cc1cc(C)[n+]2c(c1)C=CC2 | – | – | 26.3 | 68.2 | 43.1 | – | 79.4 | > 100 | > 100 | – | – | – | – | –
O=S(=O)(O)c1cc(S(=O)(=O)O)c2cc(N=Nc3ccc(N=Nc4ccc(/C=C/c5ccc(N=[N+]([O-])c6ccc(/C=C/c7ccc(N=Nc8ccc(N=Nc9ccc%10cc(S(=O)(=O)O)cc(S(=O)(=O)O)c%10c9)cc8)cc7S(=O)(=O)O)c(S(=O)(=O)O)c6)cc5S(=O)(=O)O)c(S(=O)(=O)O)c4)cc3)ccc2c1 | > 100 | > 100 | > 100 | > 100 | > 100 | > 100 | > 100 | > 100 | – | – | – | – | – | –
